# Reference: patent US20240116985A1, “STAPLED PEPTIDES AND METHODS THEREOF” (priority 2020, published 2024)
# “And” between values parts separate entries of the source, which are not always exact repeats. Equal entries are not always repeated. Where two headings read alike, the source gives them in different places.
# Columns and labels:
# [1] = Solubility in PBS; type: physicochemical; conditions: Solubility (uM)
# Outline: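 Solubility is derived from HPLC peak areas: the ratio of the PBS supernatant peak to a 50 μM DMSO peptide peak, times 50 uM.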
# [2] = target: T1, beta-catenin/TCF4 engagement (Homo sapiens, UniProt P35222); assay: Nano-BRET target engagement assay (B-cat-Halo & TCF4-Luc in HEK293 cells); type: cell-based; conditions: for inhibition at 10 µM: HEK293, 10 uM
# T1 construct: expressed in transfected cells; host or cells: HEK293
# T1 sequence (P35222 1-781): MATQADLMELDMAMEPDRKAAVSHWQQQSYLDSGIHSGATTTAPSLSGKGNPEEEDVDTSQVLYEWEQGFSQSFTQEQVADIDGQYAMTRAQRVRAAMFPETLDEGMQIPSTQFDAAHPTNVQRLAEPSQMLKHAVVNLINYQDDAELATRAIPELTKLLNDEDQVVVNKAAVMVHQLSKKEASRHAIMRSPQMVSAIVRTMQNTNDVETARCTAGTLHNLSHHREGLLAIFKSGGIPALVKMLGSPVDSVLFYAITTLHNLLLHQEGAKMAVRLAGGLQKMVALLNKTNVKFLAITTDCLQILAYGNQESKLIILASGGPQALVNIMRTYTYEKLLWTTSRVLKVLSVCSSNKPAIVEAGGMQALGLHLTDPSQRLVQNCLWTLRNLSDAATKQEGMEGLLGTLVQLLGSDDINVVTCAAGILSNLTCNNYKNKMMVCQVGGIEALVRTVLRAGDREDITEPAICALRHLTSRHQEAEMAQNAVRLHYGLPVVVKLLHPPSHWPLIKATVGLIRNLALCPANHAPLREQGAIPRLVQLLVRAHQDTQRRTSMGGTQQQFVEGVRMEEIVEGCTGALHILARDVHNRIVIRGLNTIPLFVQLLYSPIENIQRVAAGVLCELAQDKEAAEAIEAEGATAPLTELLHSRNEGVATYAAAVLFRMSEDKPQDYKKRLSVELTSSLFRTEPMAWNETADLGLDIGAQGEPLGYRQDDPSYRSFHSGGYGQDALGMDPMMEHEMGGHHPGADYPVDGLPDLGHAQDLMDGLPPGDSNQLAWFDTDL
# [3] = CHI Log D procedure; type: physicochemical; conditions: pH 7.4, CHI Log D
# [4] = target: T2, full-length beta-Catenin (Uniprot ID P35222) (Homo sapiens, UniProt P35222); assay: Fluorescence polarization IC50 (beta-catenin / 5FAM-TCF4 10-53 competition); type: binding; conditions: read-out: beta-Catenin FP IC50
# T2 construct: 10 nM full-length beta-Catenin (Uniprot ID P35222)
# T2 sequence (P35222 1-781): T1 sequence (P35222 1-781)
# [5] = system: HEK293 cells; assay: in vitro; type: cell-based; conditions: human
# Procedure: (§1) On Day 3, fluorescence was read with Nano-BRET substrates. Remove plates from incubator to allow to reach to RT (30 min). Also equilibrate CTG reagent to Rm Temp. Dilute Nano-BRET substrate 1:100 in Assay media. Add 25 uL of diluted substrate to each well and shake for 30 seconds. Read on ClarioSTAR or GloMAX right away (within 10 min). Donor emission @ 460 nm. Acceptor emission @ 618 nm. Use the same plate to measure cell viability (Cell Titer-Glo-2.0 (CTG) Viability test). After reading BRET signal, add CTG reagent to each well at 1:2 ratio and shake on orbital shaker for 2 min. Incubate at Rm Temp for 10-30 min. Read luminescence on ClarioSTAR or GloMAX. Analysis was performed using Prism. Non-linear regression. Log (inhibitor) vs response—variable slope (four parameters). For CTG data linear values (not logarithmic).
# [6] = in vitro; type: cell-based; conditions: human, HEK293 cells, CTG (CellTiter Glo) Relative to Media
# Procedure: as §1
# [7] = plate row B = 20 uM, integration 0.3 s, reading 1
structure (smiles),measurement,setting,value
"CC(=O)N1CCC[C@]12CC=CCCCC1(CCCC=CCCCOC(=O)N3CC[C@@](C(=O)N[C@@H](Cc4ccsc4)C(=O)N[C@@H](Cc4csc5ccccc45)C(=O)N[C@@H](CCC(N)=O)C(=O)N[C@H](C)C(N)=O)(C3)NC(=O)[C@H](CC(N)=O)NC(=O)[C@H](Cc3ccccc3)NC(=O)[C@H](C)NC(=O)[C@H](C)NC(=O)[C@H](CC(=O)O)NC(=O)[C@H](CC(=O)O)NC1=O)NC(=O)[C@H](CC(C)(C)C)NC(=O)[C@H](CC(=O)O)NC2=O (stereo partly drawn) [I-822, Ac-PL3-Asp-Npg-B5-Asp-Asp-Ala-Ala-Phe-Asn-PyrS2-3Thi-BztA-Gln-dAla-NH2]",Solubility,[1],46 µM
same,BRET % Inhibition,"[2]; 0.625 uM, replicates",−32.1% and −5.3% and 6.3%
same,BRET % Inhibition,"[2]; 1.25 uM, replicates",−6.1% and −18.2% and −25.1%
same,BRET % Inhibition,"[2]; 2.5 uM, replicates",−23.7% and 8.1% and −9.2%
same,BRET % Inhibition,"[2]; 5 uM, replicates",6.8% and −15.3% and 30.1%
same,BRET % Inhibition,"[2]; 10 uM, replicates",24.5% and 21.5%
same,BRET % Inhibition,"[2]; 20 uM, replicates",52.9% and 40.7% and 71.4%
same,inhibition at 10 µM,[2]; read-out: NanoBRET % inh @ 10 uM,53%
same,inhibition at 10 µM,"[2]; replicates, read-out: BRET % Inhibition",35.7%
same,BRET Acceptor 600 LP raw reading,[2]; [7],450 and 280
same,BRET Donor 450 BP raw reading,[2]; [7],59340 and 52650 and 45840
same,BRET Acceptor 600 LP raw reading,[2]; plate row C = 10 uM,490 and 470
same,BRET Donor 450 BP raw reading,[2]; plate row C = 10 uM,54740 and 47760 and 46640
same,BRET Acceptor 600 LP raw reading,[2]; plate row D = 5 uM,630 and 600 and 430
same,BRET Donor 450 BP raw reading,[2]; plate row D = 5 uM,56000 and 46130 and 45780
same,BRET Donor 450 BP raw reading,[2]; plate row E = 2.5 uM,54130 and 32300 and 33550
same,BRET Acceptor 600 LP raw reading,[2]; plate row F = 1.25 uM (plate map),470 and 380 and 260
same,IC50,[2]; read-out: NanoBRET Abs IC50,6.3 µM
same,IC50,[2]; read-out: NanoBRET IC50,7.7 µM
same,chromatographic logD,[3],2.03
same,IC50,[4],0.006 µM
same,CTG (CellTiter Glo) Relative to Media,[5]; 1.25 µM,98
same,CTG (CellTiter Glo) Relative to Media,[5]; 2.5 µM,98
same,CTG (CellTiter Glo) Relative to Media,[5]; 5 µM,95
same,CTG (CellTiter Glo) Relative to Media,[5]; 10 µM,92
same,viability at 0.625 µM,[6],100%
same,viability at 1.25 µM,[6],94%
same,viability at 2.5 µM,[6],99%
same,viability at 5 µM,[6],94%
same,viability at 10 µM,[6],90%
same,viability at 20 µM,[6],82%
